# From patent US20020131997A1, “Method for treating hematologic disorders with water insoluble 20 (S)-camptothecin” (priority 2000, published 2002)
# Assays:
# [1] = test system: dogs; assay: Toxicology studies in dogs; type: in vivo
# [2] = test system: Ph-positive CML; assay: Clinical treatment of patients with Ph-positive CML with oral 9NC gelules; type: in vivo, human; details: of 8 patients
# From the text: (§1) Twenty five patients with hematologic disorders were admitted for the treatment with 9NC. Among them, 9 patients had Philadelphia chromosome (Ph)-negative bcr/abl-negative CML; 8 patients had Philadelphia chromosome (Ph)-positive CML (6 in chronic phase and 2 in accelerated phase); 7 patients had CMML; and one had MDS (RAEB, refractory anemia with excess blasts). Median age of patients was 65 years, ranging from age 29 to age 77. Median white blood cell (WBC) counts was 25.2×10^9/L (range: 4.5-76×10^9/L); and median platelet count was 223×10^9/L (range: 23-1042×10^9/L). Among the patients for the treatment, 14 patients had splenomegaly, with median of 10.5 cms below costal margin (range: 1-13 cms). The 8 patients with Ph-positive CML were previously treated with interferon (IFN). Except for 5 patients, 12 other patients were also previously treated with IFN. Prior to the treatment of the present invention, the patients were off chemotherapy using other anticancer drugs for 2 weeks and recovered from toxicity of that chemotherapy.
# (§2) The dosing schedule was designed as the following. The drug product, 9NC gelules, are orally administered into patients for 5 consecutive days every week. Four weeks of treatment with 9NC oral dosage defines one course of treatment. Courses are repeated every 4-6 weeks, depending on patient response and recovery of WBC and platelet counts. The total daily 9NC dose is given in 2 equal divided doses (e.g. 8 a.m. and 8 p.m.).
# The dose of treatment with 9NC was designed to be modified at 5 dose levels according to myelosuppression and extramedullary toxicity. The starting dose schedule at level 0 is 2.0 mg/m^2 9NC orally daily, 5 days every week. Dose level +1 is 2.5 mg/m^2 9NC orally daily, 5 days every week. Dose level +2 is 3.0 mg/m^2 9NC orally daily, 5 days every week. Dose level −1 is 1.5 mg/m^2 9NC orally daily, 5 days every week. Dose level −2 is 1.5 mg/m^2 9NC orally daily, 4 days every week. […]
# [3] = test system: MDS of the RAEB type; assay: Clinical treatment of patient with MDS (RAEB type) with oral 9NC gelules; type: in vivo, human; details: one patient, starting dose 2 mg/m^2 daily for 5 days every week
# From the text: as §1
# as §2, with “The total daily 9NC dose is given in 2 equal divided doses (e.g. 8 a.m. and 8 p.m.).” left out
# [4] = test system: mice; assay: Toxicology studies in mice; type: in vivo
# [5] = Stability of 9NC at room temperature, activity determined by HPLC; type: physicochemical; details: left at room temperature (25° C.) for 2 months
# Description: 9-nitro-20(S)-camptothecin (9NC) was encapsulated in oral dosage of gelules containing 1 mg 9NC by a registered pharmacist. When 9NC is left at room temperature (25° C.) for 2 months, the loss of activity is minimal and has been estimated to be less than 5%+4.6%. Determination of activity has been done by HPLC. The gelules are preferably stored in freezers.
# [6] = test system: CMML; assay: Clinical treatment of patients with CMML with oral 9NC gelules; type: in vivo, human
# From the text: as §1, §2
# (§3) The dose of treatment with 9NC was designed to be modified at 5 dose levels according to myelosuppression and extramedullary toxicity. The starting dose schedule at level 0 is 2.0 mg/m^2 9NC orally daily, 5 days every week. Dose level +1 is 2.5 mg/m^2 9NC orally daily, 5 days every week. Dose level +2 is 3.0 mg/m^2 9NC orally daily, 5 days every week. Dose level −1 is 1.5 mg/m^2 9NC orally daily, 5 days every week. Dose level −2 is 1.5 mg/m^2 9NC orally daily, 4 days every week.
# (§4) During the course of treatment, if there is no response to 9NC and the patient's hematologic toxicity is less than grade II, the dose level is increase by 1 level. If there is no response to 9NC and the patient's hematologic toxicity is at grade II, the dose level stays at the same level. If there is response to 9NC and the patient's hematologic toxicity is at grade III or IV, the dose level is decreased by 1 level. If there is no response to 9NC and the patient's hematologic toxicity is at grade III or IV, the patient is off the treatment with 9NC.
# If low hematologic counts is due to myelosuppression, not disease, subsequent courses can be delayed until WBC >2.0×10^9/L and platelets >80×10^9/L. If low counts are attributed to persistent disease, subsequent courses are started regardless of the counts. […]
# [7] = test system: Ph-negative bcr/abl-negative CML; assay: Clinical treatment of patients with Ph-negative bcr/abl-negative CML with oral 9NC gelules; type: in vivo, human
# From the text: as §1, §2, §3, §4
# If low hematologic counts is due to myelosuppression, not disease, subsequent courses can be delayed until WBC >2.0×10^9/L and platelets >80×10^9/L. If low counts are attributed to persistent disease, subsequent courses are started regardless of the counts.
# The criteria for response to patients with CML are as follows.
# Complete hematologic remission (CHR): Normalization for at least 4 weeks of the bone marrow (less than 5% blasts) and peripheral blood with WBC <10×10^9/L and no peripheral blasts, promyelocytes or myelocytes. This is in addition to disappearance of all signs and symptoms of the disease.
# Partial hematologic remission (PHR): CHR except for persistence of immature cells (myelocytes, metamyelocytes), or splenomegaly <50% of pretreatment, or thrombocytosis >450×10^9/L but <50% of pretreatment.
# Gelules of 9NC were orally administrated into the 9 patients with Ph-negative bcr/abl-negative CML. The starting dose was 2 mg/m^2 daily for 5 days every week. Doses were adjusted according to myelosuppression and extramedullary toxicity as described above. […] Thus, the objective response (OR) was 6/9.
# [8] = of 9 patients, oral, starting dose 2 mg/m^2 daily for 5 days every week
smiles,measurement,setting,value
"CC[C@@]1(O)C(=O)OCc2c1cc1n(c2=O)Cc2cc3c([N+](=O)[O-])cccc3nc2-1 [9NC, 9-nitro-20(S)-camptothecin]",primary toxicity,[1],intestinal
same,tolerability,"[1]; 1.0 mg/kg/day, administered for over 2 months",well tolerated
same,patients who did not show response to the treatment,[2],6 patients
same,patients with complete response hematologically and cytogenetically,"[2]; oral, starting dose 2 mg/m^2 daily for 5 days every week",1 patient
same,patients with minor spleen response,[2]; patient in accelerated phase,1 patient
same,response by MDS criteria,[3],complete remission
same,primary toxicity,[4],intestinal
same,loss of activity,[5],less than 5%+4.6%
same,patients resistant to the treatment,[6]; of 7 patients,1 patient
same,patients with hematologic improvement in WBC or splenomegaly,[6]; of 7 patients,4 patients
same,patients with partial remission,"[6]; of 7 patients, oral, starting dose 2 mg/m^2 daily for 5 days every week",2 patients
same,objective response (OR),[6]; responders/patients,6/7
same,spleen response,[7]; in all 8 patients with splenomegaly,at least minor spleen response
same,patients resistant to the treatment,[7]; [8],2 patients
same,patients stable,[7]; [8],1 patient
same,patients with complete remission,[7]; [8],2 patients
same,patients with partial remission,[7]; [8],4 patients
same,objective response (OR),"[7]; responders/patients, oral, starting dose 2 mg/m^2 daily for 5 days every week",6/9
